This passage reports MIC results from ChEMBL document CHEMBL1649198, “Efflux unbalance in Pseudomonas aeruginosa isolates from cystic fibrosis patients” (2009).

≈ marks a conversion by molar mass, not a printed value.

The first test deals with Pseudomonas aeruginosa. As to the kind of experiment: Antimicrobial activity against Pseudomonas aeruginosa PAO1 by twofold macrodilution method. In kind it is functional.
Regarding `NCC[C@H](O)C(=O)N[C@@H]1C[C@H](N)[C@@H](O[C@H]2O[C@H](CN)[C@@H](O)[C@H](O)[C@H]2O)[C@H](O)[C@H]1O[C@H]1O[C@H](CO)[C@@H](O)[C@H](N)[C@H]1O` [AMIKACIN], the MIC was found to be 2 µg/mL (≈ 3.42 µM).

For another test, the system named is Pseudomonas aeruginosa. As to the kind of experiment: Antimicrobial activity against ampicillin- and ticarcillin-resistant Pseudomonas aeruginosa FE60 mutant transformed with pAGH97 carrying mexXY F1018L mutant by twofold macrodilution method. In kind it is functional.
`NCC[C@H](O)C(=O)N[C@@H]1C[C@H](N)[C@@H](O[C@H]2O[C@H](CN)[C@@H](O)[C@H](O)[C@H]2O)[C@H](O)[C@H]1O[C@H]1O[C@H](CO)[C@@H](O)[C@H](N)[C@H]1O` [AMIKACIN]: the MIC stood at 8 µg/mL (≈ 13.7 µM).

A further test deals with Pseudomonas aeruginosa. The test can be described thus: Antimicrobial activity against ampicillin- and ticarcillin-resistant Pseudomonas aeruginosa FE60 mutant transformed with pAGH97 carrying mexXY operon by twofold macrodilution method. In kind it is functional.
For `NCC[C@H](O)C(=O)N[C@@H]1C[C@H](N)[C@@H](O[C@H]2O[C@H](CN)[C@@H](O)[C@H](O)[C@H]2O)[C@H](O)[C@H]1O[C@H]1O[C@H](CO)[C@@H](O)[C@H](N)[C@H]1O` [AMIKACIN], it took 4 µg/mL (≈ 6.83 µM) to inhibit growth (MIC).

A further test concerns Pseudomonas aeruginosa. The test can be described thus: Antimicrobial activity against Pseudomonas aeruginosa isolate 2933 obtained from cystic fibrosis patient by disk diffusion method. In kind it is functional.
In the case of `NCC[C@H](O)C(=O)N[C@@H]1C[C@H](N)[C@@H](O[C@H]2O[C@H](CN)[C@@H](O)[C@H](O)[C@H]2O)[C@H](O)[C@H]1O[C@H]1O[C@H](CO)[C@@H](O)[C@H](N)[C@H]1O` [AMIKACIN], the minimum inhibitory concentration (MIC) was determined as 32 µg/mL (≈ 54.6 µM).

A further test deals with Pseudomonas aeruginosa. As to the kind of experiment: Antimicrobial activity against Pseudomonas aeruginosa isolate 2858 obtained from cystic fibrosis patient by disk diffusion method. Type of test: functional.
Consider `NCC[C@H](O)C(=O)N[C@@H]1C[C@H](N)[C@@H](O[C@H]2O[C@H](CN)[C@@H](O)[C@H](O)[C@H]2O)[C@H](O)[C@H]1O[C@H]1O[C@H](CO)[C@@H](O)[C@H](N)[C@H]1O` [AMIKACIN], for which the MIC was determined as 8 µg/mL (≈ 13.7 µM).

A further test deals with Pseudomonas aeruginosa. As to the kind of experiment: Antimicrobial activity against Pseudomonas aeruginosa isolate 2729 obtained from cystic fibrosis patient by disk diffusion method. In kind it is functional.
With `NCC[C@H](O)C(=O)N[C@@H]1C[C@H](N)[C@@H](O[C@H]2O[C@H](CN)[C@@H](O)[C@H](O)[C@H]2O)[C@H](O)[C@H]1O[C@H]1O[C@H](CO)[C@@H](O)[C@H](N)[C@H]1O` [AMIKACIN], the MIC came to 16 µg/mL (≈ 27.3 µM).

Another test has as its system Pseudomonas aeruginosa. As to the kind of experiment: Antimicrobial activity against Pseudomonas aeruginosa mutGR1 overexpressing mexXY mutant by twofold macrodilution method. Type of test: functional.
Take `NCC[C@H](O)C(=O)N[C@@H]1C[C@H](N)[C@@H](O[C@H]2O[C@H](CN)[C@@H](O)[C@H](O)[C@H]2O)[C@H](O)[C@H]1O[C@H]1O[C@H](CO)[C@@H](O)[C@H](N)[C@H]1O` [AMIKACIN]: it took 8 µg/mL (≈ 13.7 µM) to inhibit growth (MIC).

The next test relates to Pseudomonas aeruginosa. As to the kind of experiment: Antimicrobial activity against Pseudomonas aeruginosa isolate 3020S obtained from cystic fibrosis patient by disk diffusion method. Type of test: functional.
For the compound `NCC[C@H](O)C(=O)N[C@@H]1C[C@H](N)[C@@H](O[C@H]2O[C@H](CN)[C@@H](O)[C@H](O)[C@H]2O)[C@H](O)[C@H]1O[C@H]1O[C@H](CO)[C@@H](O)[C@H](N)[C@H]1O` [AMIKACIN], the MIC was 2 µg/mL (≈ 3.42 µM).

In a further test the test system is Pseudomonas aeruginosa. As to the kind of experiment: Antimicrobial activity against Pseudomonas aeruginosa isolate 2804 obtained from cystic fibrosis patient by disk diffusion method. Type of test: functional.
As for `NCC[C@H](O)C(=O)N[C@@H]1C[C@H](N)[C@@H](O[C@H]2O[C@H](CN)[C@@H](O)[C@H](O)[C@H]2O)[C@H](O)[C@H]1O[C@H]1O[C@H](CO)[C@@H](O)[C@H](N)[C@H]1O` [AMIKACIN], the MIC came to 128 µg/mL (≈ 219 µM).

A further test has as its system Pseudomonas aeruginosa. The test can be described thus: Antimicrobial activity against Pseudomonas aeruginosa isolate 2721 obtained from cystic fibrosis patient by agar dilution method.
In the case of `NCC[C@H](O)C(=O)N[C@@H]1C[C@H](N)[C@@H](O[C@H]2O[C@H](CN)[C@@H](O)[C@H](O)[C@H]2O)[C@H](O)[C@H]1O[C@H]1O[C@H](CO)[C@@H](O)[C@H](N)[C@H]1O` [AMIKACIN], the MIC is 32 µg/mL (≈ 54.6 µM).

In a further test the test system is Pseudomonas aeruginosa. The test can be described thus: Antimicrobial activity against Pseudomonas aeruginosa isolate 2715 obtained from cystic fibrosis patient by agar dilution method.
For the compound `NCC[C@H](O)C(=O)N[C@@H]1C[C@H](N)[C@@H](O[C@H]2O[C@H](CN)[C@@H](O)[C@H](O)[C@H]2O)[C@H](O)[C@H]1O[C@H]1O[C@H](CO)[C@@H](O)[C@H](N)[C@H]1O` [AMIKACIN], the MIC was determined as 8 µg/mL (≈ 13.7 µM).

A further test concerns Pseudomonas aeruginosa. As to the kind of experiment: Antimicrobial activity against Pseudomonas aeruginosa isolate 2716 obtained from cystic fibrosis patient by agar dilution method.
For the compound `NCC[C@H](O)C(=O)N[C@@H]1C[C@H](N)[C@@H](O[C@H]2O[C@H](CN)[C@@H](O)[C@H](O)[C@H]2O)[C@H](O)[C@H]1O[C@H]1O[C@H](CO)[C@@H](O)[C@H](N)[C@H]1O` [AMIKACIN], the MIC is 8 µg/mL (≈ 13.7 µM).

The test system of another test is Pseudomonas aeruginosa. The test can be described thus: Antimicrobial activity against Pseudomonas aeruginosa isolate 3066 obtained from cystic fibrosis patient by disk diffusion method. Type of test: functional.
As for `NCC[C@H](O)C(=O)N[C@@H]1C[C@H](N)[C@@H](O[C@H]2O[C@H](CN)[C@@H](O)[C@H](O)[C@H]2O)[C@H](O)[C@H]1O[C@H]1O[C@H](CO)[C@@H](O)[C@H](N)[C@H]1O` [AMIKACIN], the MIC amounted to 128 µg/mL (≈ 219 µM).

In a further test the test system is Pseudomonas aeruginosa. The test can be described thus: Antimicrobial activity against Pseudomonas aeruginosa isolate 615R obtained from cystic fibrosis patient by disk diffusion method. Type of test: functional.
For the compound `NCC[C@H](O)C(=O)N[C@@H]1C[C@H](N)[C@@H](O[C@H]2O[C@H](CN)[C@@H](O)[C@H](O)[C@H]2O)[C@H](O)[C@H]1O[C@H]1O[C@H](CO)[C@@H](O)[C@H](N)[C@H]1O` [AMIKACIN], the MIC was 16 µg/mL (≈ 27.3 µM).

For another test, the system named is Pseudomonas aeruginosa. As to the kind of experiment: Antimicrobial activity against ampicillin- and ticarcillin-resistant Pseudomonas aeruginosa FE60 mutant transformed with pAGH97 carrying mexXY F29S mutant by twofold macrodilution method. Type of test: functional.
In the case of `NCC[C@H](O)C(=O)N[C@@H]1C[C@H](N)[C@@H](O[C@H]2O[C@H](CN)[C@@H](O)[C@H](O)[C@H]2O)[C@H](O)[C@H]1O[C@H]1O[C@H](CO)[C@@H](O)[C@H](N)[C@H]1O` [AMIKACIN], the minimum inhibitory concentration (MIC) was found to be 4 µg/mL (≈ 6.83 µM).

The next test deals with Pseudomonas aeruginosa. The test can be described thus: Antimicrobial activity against Pseudomonas aeruginosa isolate 3020R obtained from cystic fibrosis patient by agar dilution method.
For the compound `NCC[C@H](O)C(=O)N[C@@H]1C[C@H](N)[C@@H](O[C@H]2O[C@H](CN)[C@@H](O)[C@H](O)[C@H]2O)[C@H](O)[C@H]1O[C@H]1O[C@H](CO)[C@@H](O)[C@H](N)[C@H]1O` [AMIKACIN], the minimal inhibitory concentration (MIC) turned out to be 32 µg/mL (≈ 54.6 µM).

A further test relates to Pseudomonas aeruginosa. The test can be described thus: Antimicrobial activity against Pseudomonas aeruginosa isolate 615S obtained from cystic fibrosis patient by disk diffusion method. In kind it is functional.
Compound `NCC[C@H](O)C(=O)N[C@@H]1C[C@H](N)[C@@H](O[C@H]2O[C@H](CN)[C@@H](O)[C@H](O)[C@H]2O)[C@H](O)[C@H]1O[C@H]1O[C@H](CO)[C@@H](O)[C@H](N)[C@H]1O` [AMIKACIN] registered an MIC of 2 µg/mL (≈ 3.42 µM).

Another test has as its system Pseudomonas aeruginosa. As to the kind of experiment: Antimicrobial activity against mexXY deficient ampicillin- and ticarcillin-resistant Pseudomonas aeruginosa FE60 mutant by twofold macrodilution method. In kind it is functional.
As to `NCC[C@H](O)C(=O)N[C@@H]1C[C@H](N)[C@@H](O[C@H]2O[C@H](CN)[C@@H](O)[C@H](O)[C@H]2O)[C@H](O)[C@H]1O[C@H]1O[C@H](CO)[C@@H](O)[C@H](N)[C@H]1O` [AMIKACIN], inhibition of growth (MIC) required 0.5 µg/mL (≈ 0.854 µM).

The next test deals with Pseudomonas aeruginosa. As to the kind of experiment: Antimicrobial activity against Pseudomonas aeruginosa isolate 2998 obtained from cystic fibrosis patient by agar dilution method.
Consider `NCC[C@H](O)C(=O)N[C@@H]1C[C@H](N)[C@@H](O[C@H]2O[C@H](CN)[C@@H](O)[C@H](O)[C@H]2O)[C@H](O)[C@H]1O[C@H]1O[C@H](CO)[C@@H](O)[C@H](N)[C@H]1O` [AMIKACIN], for which it took 16 µg/mL (≈ 27.3 µM) to inhibit growth (MIC).
